One data set has as its system DLD-1. The data set is described as follows: in vitro colon cancer cell growth inhibition (NCI screen).
The next data set deals with SK-MEL-2. Put plainly: in vitro melanoma cell growth inhibition (NCI screen).
For another data set, the system named is M14. The data set is described as above.
The next data set has as its system HCT-15. The data set is described as follows: in vitro colon cancer cell growth inhibition (NCI screen).
A further data set concerns OVCAR-3. The data set is described as follows: in vitro ovarian cancer cell growth inhibition (NCI screen).
For a further data set, the system named is SW 620. Put plainly: in vitro colon cancer cell growth inhibition (NCI screen).
A further data set deals with ACHN. Put plainly: in vitro renal cancer cell growth inhibition (NCI screen).
For the next data set, the system named is MALME-3M. Put plainly: in vitro melanoma cell growth inhibition (NCI screen).
The test system of a further data set is OVCAR-4. The data set is described as follows: in vitro ovarian cancer cell growth inhibition (NCI screen). Particulars: OVACR-4.
A further data set relates to RXF-393. The data set is described as follows: in vitro renal cancer cell growth inhibition (NCI screen).
The test system of a further data set is IGROV1. The data set is described as follows: in vitro ovarian cancer cell growth inhibition (NCI screen).
The test system of the next data set is HCT-116. The data set is described as follows: in vitro colon cancer cell growth inhibition (NCI screen).
A further data set has as its system M19-MEL. The data set is described as follows: in vitro melanoma cell growth inhibition (NCI screen).
In the next data set the test system is HOP-92. Put plainly: in vitro non-small cell lung cancer cell growth inhibition (NCI screen).
The subject of a further data set is SF-539. Put plainly: in vitro CNS cancer cell growth inhibition (NCI screen).
In the next data set the test system is K-562. Put plainly: in vitro leukemia cell growth inhibition (NCI screen).
The test system of the next data set is UACC-62. The data set is described as follows: in vitro melanoma cell growth inhibition (NCI screen).
Another data set has as its system SK-MEL-5. The description is as above.
A further data set concerns MOLT-4. The data set is described as follows: in vitro leukemia cell growth inhibition (NCI screen).
The test system of the next data set is NCI-H23. Put plainly: in vitro non-small cell lung cancer cell growth inhibition (NCI screen).
The test system of a further data set is LXFL 529. Described as above.
The test system of another data set is CCRF-CEM. The data set is described as follows: in vitro leukemia cell growth inhibition (NCI screen).
The test system of a further data set is HL-60(TB). Described as above.
Another data set has as its system SF-268. The data set is described as follows: in vitro CNS cancer cell growth inhibition (NCI screen).
A further data set relates to NCI-H460. Put plainly: in vitro non-small cell lung cancer cell growth inhibition (NCI screen).
A further data set deals with UACC-257. Put plainly: in vitro melanoma cell growth inhibition (NCI screen).
The next data set relates to LOX1MVI. The description is as above.
Another data set relates to U 251. The data set is described as follows: in vitro CNS cancer cell growth inhibition (NCI screen).
The test system of another data set is HT 29. Put plainly: in vitro colon cancer cell growth inhibition (NCI screen).
Another data set concerns SR. Put plainly: in vitro leukemia cell growth inhibition (NCI screen).
The test system of a further data set is COLO-205. The data set is described as follows: in vitro colon cancer cell growth inhibition (NCI screen).
A further data set concerns human tumor cell lines. The format is cell-based. Particulars: cancer cell line panel.
Another data set concerns NCI-H522. The data set is described as follows: in vitro non-small cell lung cancer cell growth inhibition (NCI screen).

Take `O=C1c2ccccc2C(=O)c2[nH]c(Cc3ccc(F)cc3)nc21` [Compound 4c]: the “cytotoxicity log GI50” value is listed as -5.40 M with DLD-1; -4.86 M in the data set on SK-MEL-2; -4.82 M in the data set on M14; -5.19 M in the data set with HCT-15; -5.27 M with OVCAR-3; -4.84 M in the data set with SW 620. In addition, the “cytotoxicity log GI50” value is -4.85 M with ACHN; -4.84 M with MALME-3M; -4.83 M in the data set with OVCAR-4; -5.16 M with RXF-393; -4.90 M in the data set on IGROV1.

Regarding `CCC(C)n1c(C)nc2c1C(=O)c1ccccc1C2=O` (centres unmarked) [Compound 6], the “cytotoxicity log GI50” value was -4.57 M with DLD-1; -4.50 M with HCT-116; -4.74 M in the data set on M19-MEL; -4.66 M in the data set with HOP-92; -4.49 M with SF-539; -4.47 M in the data set with K-562. The “cytotoxicity log GI50” value is listed as -4.55 M in the data set with UACC-62; -4.57 M with HCT-15; -4.49 M in the data set with OVCAR-3; -4.57 M in the data set with SK-MEL-5; -4.55 M in the data set on MOLT-4; -4.48 M in the data set on NCI-H23. In addition, the “cytotoxicity log GI50” value is -4.48 M with LXFL 529; -4.43 M in the data set with CCRF-CEM; -4.49 M in the data set on MALME-3M; -4.84 M with HL-60(TB); -4.57 M in the data set on RXF-393; -4.51 M with SF-268. Further, the “cytotoxicity log GI50” value is reported as -4.71 M in the data set with NCI-H460, -4.55 M in the data set on UACC-257 and -4.64 M in the data set with LOX1MVI.

As to `CCCC(C)n1c(C)nc2c1C(=O)c1ccccc1C2=O` (centres unmarked) [Compound 9], the “cytotoxicity log GI50” value is -5.07 M in the data set on DLD-1; -5.26 M in the data set on HCT-116; -4.91 M in the data set on U 251; -4.90 M in the data set on M19-MEL; -4.78 M in the data set with HOP-92; -4.89 M in the data set on SF-539. For the same molecule, the “cytotoxicity log GI50” value in the data set on K-562 was -5.07 M; in the data set with UACC-62, -5.17 M; with HCT-15, -5.22 M; in the data set on SK-MEL-5, -4.88 M; with HT 29, -4.76 M; in the data set with NCI-H23, -4.81 M. Also, the “cytotoxicity log GI50” value with LXFL 529 was -4.90 M; in the data set on NCI-H460 it was -5.34 M; with LOX1MVI, -5.06 M.

Consider `Cc1nc2c(n1CCC(C)C)C(=O)c1ccccc1C2=O` [Compound 11], for which the “cytotoxicity log GI50” value in the data set on DLD-1 is recorded as -4.95 M; in the data set with HCT-116, -5.17 M; with U 251 it was -4.90 M; in the data set on M19-MEL it was -4.84 M; with SF-539, -4.92 M; in the data set with K-562 it was -5.09 M. The “cytotoxicity log GI50” value with SR is listed as -5.33 M; with UACC-62, -4.91 M; with HCT-15 it was -4.93 M; with SK-MEL-5, -4.84 M; with MOLT-4, -5.08 M; with LXFL 529, -4.88 M. For the same molecule, the “cytotoxicity log GI50” value in the data set with CCRF-CEM is listed as -4.87 M; with HL-60(TB), -5.22 M; in the data set on SF-268 it was -4.84 M; with NCI-H460 it was -5.22 M; in the data set with LOX1MVI, -4.83 M; in the data set with COLO-205, -4.84 M.

In the case of `CCC(C)Cn1c(C)nc2c1C(=O)c1ccccc1C2=O` (centres unmarked) [Compound 13], the “cytotoxicity log GI50” value with M19-MEL is -4.74 M; in the data set with HOP-92, -4.69 M; with SF-539, -4.75 M; in the data set with K-562 it was -5.27 M; in the data set on SR it was -5.55 M; in the data set with UACC-62 it was -5.00 M. The “cytotoxicity log GI50” value in the data set on HCT-15 is -4.76 M; with SK-MEL-5, -4.82 M; in the data set with MOLT-4, -5.54 M; in the data set with NCI-H23, -4.68 M; in the data set with LXFL 529, -4.77 M; in the data set with HL-60(TB), -5.30 M. Moreover, the “cytotoxicity log GI50” value in the data set on NCI-H460 is -4.83 M; with LOX1MVI, -4.71 M; in the data set with COLO-205 it was -4.70 M.

As to `Cc1nc2c(n1CC(C)(C)C)C(=O)c1ccccc1C2=O` [Compound 14], the “cytotoxicity log GI50” value in the data set on HOP-92 is on record as -4.78 M; in the data set on K-562, -4.25 M; in the data set on OVCAR-3, -4.18 M; with SK-MEL-5 it was -4.37 M; in the data set with HL-60(TB), -4.44 M; in the data set with NCI-H460, -4.23 M. In the data set on LOX1MVI, the “cytotoxicity log GI50” value is -4.25 M.

Consider `Cc1nc2c(n1CCO)C(=O)c1ccccc1C2=O` [Compound 16], for which the “cytotoxicity log GI50” value in the data set with HCT-116 is listed as -4.72 M; in the data set on SK-MEL-2, -4.74 M; in the data set on M19-MEL, -5.59 M; in the data set on K-562 it was -4.59 M; with SR, -4.58 M; with UACC-62, -4.78 M. The “cytotoxicity log GI50” value is on record as -4.67 M in the data set on M14; -4.61 M in the data set with OVCAR-3; -4.95 M in the data set with SK-MEL-5; -4.82 M with NCI-H23; -4.84 M with NCI-H522; -4.60 M in the data set with ACHN. Besides, the “cytotoxicity log GI50” value with MALME-3M is given as -4.93 M; in the data set on OVCAR-4 it was -4.58 M; in the data set on HL-60(TB) it was -4.70 M; with IGROV1 it was -4.69 M; with UACC-257, -4.78 M; in the data set with LOX1MVI, -4.63 M. Also, the “cytotoxicity log GI50” value in the data set on COLO-205 is listed as -4.72 M. Besides, the “cytotoxicity against tumor cells (in words)” value in the data set with human tumor cell lines is “comparable to those of compounds 6-14”.

As for `CCCC(C)NC1=C(NC(C)=O)C(=O)c2ccccc2C1=O` (centres unmarked) [Compound 33], the “cytotoxicity log GI50” value with M19-MEL was -4.20 M; in the data set on HOP-92 it was -4.32 M; with SK-MEL-5 it was -4.13 M; in the data set on NCI-H522, -4.19 M; in the data set with MALME-3M it was -4.44 M.

Take `CCC(CC)NC1=C(NC(C)=O)C(=O)c2ccccc2C1=O` [Compound 34]: the “cytotoxicity log GI50” value in the data set with HOP-92 is -6.47 M.

As to `CC(=O)NC1=C(NCCC(C)C)C(=O)c2ccccc2C1=O` [Compound 35], the “cytotoxicity log GI50” value with ACHN was -7.52 M.

As to `CCC(C)CNC1=C(NC(C)=O)C(=O)c2ccccc2C1=O` (centres unmarked) [Compound 37], the “cytotoxicity log GI50” value with M19-MEL is on record as -4.68 M; with OVCAR-3 it was -4.25 M; in the data set on SK-MEL-5, -4.50 M; in the data set on NCI-H23, -4.17 M; in the data set on MALME-3M it was -4.45 M.

The values are drawn from US5789431A, “Naphthoquinone antitumor compound and method” (The University of North Carolina at Chapel Hill, priority 1996, dated 1998).
